A word on the melting point: it is the temperature, or range, at which the solid turns liquid. The molecule `O=C(c1ccco1)c1cnn2c(-c3ccccc3)ccnc12` returned a melting point of 185 to 187 °C.
The molecule `O=C(O)CCc1cn(Cc2ccc(OCc3ccc(-c4ccccc4)cn3)cc2)cc1-c1ccccc1` had a melting point of 169 to 170 °C.
The figure for `CCCCCOC(=O)c1cc(NC(=O)C2=C(C)OCCS2)ccc1Cl` is 65 to 68 °C; for `C#Cc1cccc(Nc2ncnc3ccc(S(=O)(=O)n4ccc(C=CC(=O)Nc5ccccc5NC(=O)OC(C)(C)C)c4)cc23)c1` it is 146 to 150 °C.
The result for `O=[N+]([O-])c1ccc(Oc2ccc(C(c3ccc(Oc4ccc([N+](=O)[O-])cc4)cc3)(C(F)(F)F)C(F)(F)F)cc2)cc1` reads 150 to 152 °C; that for `CC1=C(C(=O)Nc2ccccc2)SC2=NCCN21`, 204 to 205 °C.
Regarding `O=C(NC1CCCCC1)NC1N=C(c2ccccc2F)c2ccccc2N(CC(=O)N2CC3CCC(CC3)C2)C1=O` (racemic), the melting point was in the range of 128 to 130 °C.
The result for `CC(=O)Nc1c(C(=O)c2ccncc2)[nH]c2cc(Cl)ccc12` reads 262 to 264 °C; that for `CCn1cccc1Cc1cccc(NC(N)=O)c1`, 56 to 58 °C; that for `CCS(=O)(=O)c1ccc(Oc2cc(Cl)c(Cl)cc2Cl)nc1`, 120 to 122 °C.
Regarding `O=C(O)c1ccc(SC(C(=O)O)c2cccc(C(F)(F)F)c2)cn1` (stereo unspecified), the melting point fell in the range of 190 to 195 °C.
The result for `COC(=O)COc1cc(N(C(=O)CCl)C(=O)C2=C(C(=O)OC)CCCC2)c(F)cc1Cl` reads 144 to 145 °C.
The molecule `CCCCCCCCCCCCSC1C=NNC1=O` (stereo unspecified) registered a melting point of 88.5 to 90 °C.
The result for `COC(=O)CN1C(=S)CN=C(c2ccccc2)c2cc(Cl)ccc21` reads 180 to 182 °C.
The result for `CCn1cc(C(=O)O)c(=O)c2cc(F)c(N3CCNC(c4ccoc4)C3)cc21` (stereo unspecified) reads 202 to 204 °C; that for `CC(=O)OCOC(c1ccccc1)n1cc(F)c(=O)[nH]c1=O` (stereo unspecified), 108 to 109 °C; that for `CCOC(=O)C(C#N)=C(NCc1ccccc1)NCC1CN(Cc2ccc(F)cc2)CCO1` (stereo unspecified), 107 to 108 °C.
`CCN1C(=O)N(c2ccc([N+](=O)[O-])c(C(F)(F)F)c2)C(=O)C1(C)C` came in with a melting point of 110 to 111 °C.
`Cc1oc(-c2ccccc2)nc1COc1ccc(COc2nn(Cc3ccccc3)cc2CCC(=O)O)cc1` came in with a melting point of 125 to 126 °C.
`NC(=O)/C=C1\CCc2c(F)cc(F)cc21` yielded a melting point of 178 to 180 °C.
`O=S1(=O)NCN(C2CC2)c2c1ccc(Br)c2Cl` had a melting point of 128 to 131 °C.
The result for `O=C1c2ccccc2C(=O)N1CCCN1C(=O)C2(COc3cc4c(cc32)CCO4)c2ccccc21` (stereo unspecified) reads 214 to 217 °C; that for `CC(O)c1ccc(-c2ccc(C(F)(F)F)cc2)cc1` (stereo unspecified), 116 to 117 °C; that for `COc1ccc2c(c1)S(=O)(=O)c1cc(OC(C)=O)c(OC)cc1N2`, 265 to 268 °C.
The figure for `CCCCCCCCCCCC(=O)NC1C(C)C(c2ccccc2)NC(c2ccccc2)C1C` (stereo unspecified) is 112 to 114 °C.
As for `COc1ccc(C=CCN2CCc3nc(N)sc3CC2)c(OC)c1`, the melting point was in the range of 95 to 100 °C.
As to `COc1cc(OC)c(SC(C)(C)CC(=O)O)c(OC)c1`, the melting point is 103 to 105 °C.
The figure for `Cc1nn2c(O)ccnc2c1-c1cc(-c2ccccc2)cs1` is 218 to 235 °C.
The result for `CN(C)CCOc1cccc(CC(Nc2cc(-c3ccc(OCc4ccccc4)cc3)ncn2)C(=O)O)c1` (stereo unspecified) reads 143 °C; that for `C=C(CN1C(=O)[C@H]2CCCN2C(=O)c2ccccc21)c1ccc(C(=O)Nc2ccccc2N)cc1`, 160 to 162 °C.
The result for `Oc1ccc2c(c1)COc1c-2cc2ccc(O)cc2c1-c1ccccc1` reads 225 to 227 °C.
The molecule `CCOC(=O)c1coc(=O)cc1S(C)(=O)=O` returned a melting point of 95 to 97 °C.
As to `Cn1ncc2[nH]c3cccc(-c4cccc(O)c4)c3c(=O)c21`, the melting point was above 300 °C.
On to `CCOC(=O)CN(c1cccc2cc(-c3nccs3)n(COC)c12)S(=O)(=O)c1cccs1`, for which the melting point fell in the range of 124 to 125 °C.
The figure for `CCN(CC)c1ccc(Cn2nc(-c3ccccc3O)nc2-c2ccccc2O)cc1` is 125 to 127 °C.
The figure for `CC(C)n1cc(-c2ccc3nnn(Cc4ccc5ncccc5c4)c3n2)cn1` is 126 to 128 °C.
In the case of `COc1ccc(C(=O)N2c3ccccc3C(N3CCc4ccccc4C3)CC2C)cc1OC` (stereo unspecified), the melting point fell in the range of 128 to 129 °C.
The figure for `C#CCn1c(I)cc(C(O)CC)c(C)c1=O` (stereo unspecified) is 126 to 127 °C; for `Nc1ccc(S(=O)(=O)Nc2cc(Cl)nc(C(F)(F)F)c2)cc1` it is 179 to 181 °C.
Regarding `COC(=O)c1cc(S(C)(=O)=O)c(Cl)cc1C`, the melting point was 151 °C.
The result for `COc1cccc(NC(=O)[C@H](CC(=O)OC(C)(C)C)NC(=O)OCc2ccccc2)c1` reads 68 to 69 °C; that for `CCOC(=O)C1Oc2ccccc2Cc2ccccc2O1`, 86.5 to 88.5 °C; that for `CCCCCCC(C)Oc1ccc(C(=O)O)cc1C#N` (stereo unspecified), 98.1 to 99.9 °C.
In turn, `CC1=CC(=O)N(c2cc(NS(=O)(=O)c3cccc4c(N(C)C)cccc34)cc(N3C(=O)C=C(C)C3=O)c2)C1=O` yielded a melting point of 230 °C.
The result for `CCOC(=O)C1(C)C(=O)Nc2cc(NC(=O)c3ccncc3)c([N+](=O)[O-])cc21` (stereo unspecified) reads 217 to 219 °C.
The figure for `Cc1cc(C2=CCN(S(=O)(=O)C3(C(=O)O)CCOCC3)CC2)ccc1-c1ccccc1` is 211 to 213 °C; for `O=C(OC1CCN(Cc2ccc(Cl)cc2)CC1)c1ccc(Cl)cc1` it is 67 to 69 °C.
The figure for `COC(=O)c1cc(N2CCNC2=O)c2cc(Cc3ccc(F)cc3)cnc2c1O` is 248 to 250 °C.
As to `CC(C)CCC(O)C(CC1CCCCC1)NC(=O)C(Cc1c[nH]cn1)N(C)C(=O)C(Cc1ccccc1)NC(=O)N(C)CCN(C)C(=O)N1CCOCC1` (stereo unspecified), the melting point was in the range of 89 to 92 °C.
The molecule `Nc1cccc(OCc2nc3ccccc3s2)c1` returned a melting point of 117 to 120 °C.
Molecule `CCCNC(=NC(=Nc1ccccc1)N1CCOCC1)C(C)C` gave a melting point of 122 to 124 °C.
Consider `CCOC(=O)c1c(SCc2ccc(OC)cc2)[nH]c2cc(Cl)c(F)cc2c1=O`, for which the melting point amounted to 142 °C.
Regarding `CC(=O)c1ccc(OC(=O)c2c3ccccc3nc3ccccc23)cc1`, the melting point fell in the range of 214 to 215 °C.
The figure for `Nc1ccc(S(F)(F)(F)(F)F)cc1` is 63 to 65 °C; for `CCOC(=O)c1nc2cc(Br)c(Cl)cc2[nH]c1=O` it is 203 to 205 °C; for `CCOC(=O)C1CNc2cc([N+](=O)[O-])ccc2O1` (stereo unspecified) it is 88 to 90 °C.
`O=C(CN1C(=O)c2ccccc2S1(=O)=O)Nc1ccccc1`: the melting point is 180 to 182 °C.
The result for `CCOC(=O)CNC(=O)c1nc2ccc(NCCCN3CCC(OC(c4ccccc4)c4ccccc4)CC3)nn2n1` reads 175 to 177 °C; that for `CCOc1ccc(CCCOc2nn(C)cc2CC(=O)O)c(Oc2ccc(Cl)cc2Cl)n1`, 81 to 83 °C; that for `N#COc1ccc(C=CC(=O)c2ccc(OC#N)cc2)cc1`, 171 to 173 °C.
`CCCOc1ccccc1-c1ncc(C(=O)NC)c(=O)[nH]1`: the melting point fell in the range of 190 to 191 °C.
